Results: ChEMBL document CHEMBL1147878, “Synthesis and in vitro antimicrobial activity of new 2-[p-substituted-benzyl]-5-[substituted-carbonylamino]benzoxazoles” (2007)
≈ marks a conversion by molar mass, not a printed value.

Columns and labels:
Assay type in all cases: functional
Pseudomonas aeruginosa = test: Antibacterial activity against Pseudomonas aeruginosa ATCC 10145 after 24 hrs by serial dilution method; conditions: ATCC 10145, 24 h
Bacillus subtilis = test: Antibacterial activity against Bacillus subtilis ATCC 6633 after 24 hrs by serial dilution method; conditions: ATCC 6633, 24 h
Staphylococcus aureus = test: Antibacterial activity against Staphylococcus aureus ATCC 25923 after 24 hrs by serial dilution method; conditions: ATCC 25923, 24 h
Escherichia coli = test: Antibacterial activity against Escherichia coli ATCC 23556 after 24 hrs by serial dilution method; conditions: ATCC 23556, 24 h
Candida albicans = test: Antifungal activity against Candida albicans after 48 hrs by serial dilution method
Nakaseomyces glabratus = test: Antifungal activity against Candida glabrata after 48 hrs by serial dilution method
Pichia kudriavzevii = test: Antifungal activity against Candida krusei ATCC 6258 after 48 hrs by serial dilution method; conditions: ATCC 6258, 48 h

Row | Compound | MIC (Pseudomonas aeruginosa) | MIC (Bacillus subtilis) | MIC (Staphylococcus aureus) | MIC (Escherichia coli) | MIC (Candida albicans) | MIC (Nakaseomyces glabratus) | MIC (Pichia kudriavzevii)
1 | CC1(C)S[C@@H]2[C@H](NC(=O)[C@H](N)c3ccc(O)cc3)C(=O)N2[C@H]1C(=O)O [AMOXICILLIN] | > 200 µg/mL | 1.56 µg/mL (≈ 4.27 µM) | 1.56 µg/mL (≈ 4.27 µM) | 3.12 µg/mL (≈ 8.54 µM) |  |  | 
2 | O=C(CSc1ccccc1)Nc1ccc2oc(Cc3ccc(Cl)cc3)nc2c1 | 100 µg/mL (≈ 245 µM) | 100 µg/mL (≈ 245 µM) | 100 µg/mL (≈ 245 µM) | 100 µg/mL (≈ 245 µM) | 50 µg/mL (≈ 122 µM) | 50 µg/mL (≈ 122 µM) | 25 µg/mL (≈ 61.1 µM)
3 | Cc1ccc(CC(=O)Nc2ccc3oc(Cc4ccc(Cl)cc4)nc3c2)cc1 | 25 µg/mL (≈ 64 µM) | 25 µg/mL (≈ 64 µM) | 100 µg/mL (≈ 256 µM) | 50 µg/mL (≈ 128 µM) | 12.5 µg/mL (≈ 32 µM) | 12.5 µg/mL (≈ 32 µM) | 12.5 µg/mL (≈ 32 µM)
4 | O=C(Nc1ccc2oc(Cc3ccccc3)nc2c1)c1ccccc1 | 100 µg/mL (≈ 305 µM) | 50 µg/mL (≈ 152 µM) | 200 µg/mL (≈ 609 µM) | 100 µg/mL (≈ 305 µM) | 50 µg/mL (≈ 152 µM) | 25 µg/mL (≈ 76.1 µM) | 12.5 µg/mL (≈ 38.1 µM)
5 | O=C(Cc1ccccc1)Nc1ccc2oc(Cc3ccccc3)nc2c1 | 50 µg/mL (≈ 146 µM) | 25 µg/mL (≈ 73 µM) | 25 µg/mL (≈ 73 µM) | 25 µg/mL (≈ 73 µM) | 12.5 µg/mL (≈ 36.5 µM) | 25 µg/mL (≈ 73 µM) | 12.5 µg/mL (≈ 36.5 µM)
6 | O=C(Nc1ccc2oc(Cc3ccc(Cl)cc3)nc2c1)c1ccc(Br)cc1 | 50 µg/mL (≈ 113 µM) | 50 µg/mL (≈ 113 µM) | 50 µg/mL (≈ 113 µM) | 50 µg/mL (≈ 113 µM) | 50 µg/mL (≈ 113 µM) | 100 µg/mL (≈ 226 µM) | 100 µg/mL (≈ 226 µM)
7 | O=C(Cc1ccc(Cl)cc1)Nc1ccc2oc(Cc3ccc(Cl)cc3)nc2c1 | 25 µg/mL (≈ 60.8 µM) | 25 µg/mL (≈ 60.8 µM) | 50 µg/mL (≈ 122 µM) | 50 µg/mL (≈ 122 µM) | 50 µg/mL (≈ 122 µM) | 12.5 µg/mL (≈ 30.4 µM) | 6.25 µg/mL (≈ 15.2 µM)
8 | CC1(C)S[C@@H]2[C@H](NC(=O)[C@H](N)c3ccccc3)C(=O)N2[C@H]1C(=O)O [AMPICILLIN] | > 200 µg/mL | 1.56 µg/mL (≈ 4.46 µM) | 1.56 µg/mL (≈ 4.46 µM) | 12.5 µg/mL (≈ 35.8 µM) |  |  | 
9 | O=C(O)c1cn(C2CC2)c2cc(N3CCNCC3)c(F)cc2c1=O [CIPROFLOXACIN] | 0.78 µg/mL (≈ 2.35 µM) | 1.56 µg/mL (≈ 4.71 µM) | 3.12 µg/mL (≈ 9.42 µM) |  |  |  | 
10 | Cc1ccc(C(=O)Nc2ccc3oc(Cc4ccccc4)nc3c2)cc1C | 25 µg/mL (≈ 70.1 µM) | 50 µg/mL (≈ 140 µM) | 50 µg/mL (≈ 140 µM) | 50 µg/mL (≈ 140 µM) | 25 µg/mL (≈ 70.1 µM) | 50 µg/mL (≈ 140 µM) | 50 µg/mL (≈ 140 µM)
11 | Clc1ccccc1C(c1ccccc1)(c1ccccc1)n1ccnc1 [CLOTRIMAZOLE] |  |  |  |  | 6.25 µg/mL (≈ 18.1 µM) |  | 
12 | O=C(Nc1ccc2oc(Cc3ccc(Cl)cc3)nc2c1)c1ccc(F)cc1 | 50 µg/mL (≈ 131 µM) | 25 µg/mL (≈ 65.7 µM) | 50 µg/mL (≈ 131 µM) | 25 µg/mL (≈ 65.7 µM) | 12.5 µg/mL (≈ 32.8 µM) | 12.5 µg/mL (≈ 32.8 µM) | 12.5 µg/mL (≈ 32.8 µM)
13 | O=C(Nc1ccc2oc(Cc3ccccc3)nc2c1)c1ccc(Cl)c([N+](=O)[O-])c1 | 25 µg/mL (≈ 61.3 µM) | 25 µg/mL (≈ 61.3 µM) | 50 µg/mL (≈ 123 µM) | 50 µg/mL (≈ 123 µM) | 12.5 µg/mL (≈ 30.7 µM) | 12.5 µg/mL (≈ 30.7 µM) | 12.5 µg/mL (≈ 30.7 µM)
14 | Cc1ccc(C(=O)Nc2ccc3oc(Cc4ccccc4)nc3c2)s1 | 25 µg/mL (≈ 71.8 µM) | 25 µg/mL (≈ 71.8 µM) | 25 µg/mL (≈ 71.8 µM) | 25 µg/mL (≈ 71.8 µM) | 12.5 µg/mL (≈ 35.9 µM) | 6.25 µg/mL (≈ 17.9 µM) | 6.25 µg/mL (≈ 17.9 µM)
15 | O=C(CSc1ccccc1)Nc1ccc2oc(Cc3ccccc3)nc2c1 | 25 µg/mL (≈ 66.8 µM) | 50 µg/mL (≈ 134 µM) | 100 µg/mL (≈ 267 µM) | 50 µg/mL (≈ 134 µM) | 25 µg/mL (≈ 66.8 µM) | 25 µg/mL (≈ 66.8 µM) | 25 µg/mL (≈ 66.8 µM)
16 | O=C(Nc1ccc2oc(Cc3ccccc3)nc2c1)c1ccc(F)cc1 | 25 µg/mL (≈ 72.2 µM) | 25 µg/mL (≈ 72.2 µM) | 50 µg/mL (≈ 144 µM) | 50 µg/mL (≈ 144 µM) | 12.5 µg/mL (≈ 36.1 µM) | 25 µg/mL (≈ 72.2 µM) | 50 µg/mL (≈ 144 µM)
17 | CCc1ccc(C(=O)Nc2ccc3oc(Cc4ccc(Cl)cc4)nc3c2)cc1 | 50 µg/mL (≈ 128 µM) | 50 µg/mL (≈ 128 µM) | 50 µg/mL (≈ 128 µM) | 50 µg/mL (≈ 128 µM) | 25 µg/mL (≈ 64 µM) | 25 µg/mL (≈ 64 µM) | 25 µg/mL (≈ 64 µM)
18 | O=C(Cc1ccc(Br)cc1)Nc1ccc2oc(Cc3ccccc3)nc2c1 | 25 µg/mL (≈ 59.3 µM) | 25 µg/mL (≈ 59.3 µM) | 25 µg/mL (≈ 59.3 µM) | 25 µg/mL (≈ 59.3 µM) | 25 µg/mL (≈ 59.3 µM) | 3.12 µg/mL (≈ 7.41 µM) | 12.5 µg/mL (≈ 29.7 µM)
19 | O=C(Nc1ccc2oc(Cc3ccc(Cl)cc3)nc2c1)c1ccc(Cl)c([N+](=O)[O-])c1 | 50 µg/mL (≈ 113 µM) | 50 µg/mL (≈ 113 µM) | 50 µg/mL (≈ 113 µM) | 50 µg/mL (≈ 113 µM) | 25 µg/mL (≈ 56.5 µM) | 25 µg/mL (≈ 56.5 µM) | 25 µg/mL (≈ 56.5 µM)
20 | Cc1ccc(C)c(C(=O)Nc2ccc3oc(Cc4ccccc4)nc3c2)c1 | 50 µg/mL (≈ 140 µM) | 25 µg/mL (≈ 70.1 µM) | 50 µg/mL (≈ 140 µM) | 50 µg/mL (≈ 140 µM) | 25 µg/mL (≈ 70.1 µM) | 25 µg/mL (≈ 70.1 µM) | 25 µg/mL (≈ 70.1 µM)
21 | Clc1ccc(COC(Cn2ccnc2)c2ccc(Cl)cc2Cl)c(Cl)c1 (configuration not stated) [MICONAZOLE] |  |  |  |  | 3.12 µg/mL (≈ 7.5 µM) | 3.12 µg/mL (≈ 7.5 µM) | 1.56 µg/mL (≈ 3.75 µM)
